Key:
[1] = tested on: M14 (MDA-MB-435) melanoma cells; experiment: Cell viability of sparse and dense M14 (MDA-MB-435) melanoma cells under normoxia or hypoxia (FIG. 5b); assay type: cell-based; settings: normoxia (20%) or hypoxia (0.1%), viability at 48 h by cellular ATP
Protocol: In hypoxic cells, stabilized HIF-1α shunts away energy carbon flow from mitochondria (illustrated graphically in FIG. 4.). The regulatory subunit of HIF-1α is stabilized under hypoxic conditions, and thus-stabilized HIF-1α forms active HIF-1 (HIF-1α/1b heterodimer), whereupon HIF-1 induces LDH-A to convert pyruvate to lactate. The potency of the bis[thiohydrazide amide] compound elesclomol on sparse and dense melanoma cells was assayed under hypoxic and normoxic conditions. Total HIF-1α (cytosolic+nuclear, FIG. 5a) and cell viability of M14 (MDA-MB-435) melanoma cells (FIG. 5b) was evaluated at 12 h and 48 h by ELISA (R&D systems) and cellular ATP levels (CellTiter Glo-Promega), respectively, under normoxia (20%) or hypoxia (0.1%) with sparse (2 k cells/well) or dense (20 k cells/well) in 96-well plates.

769-P = experiment: Cell viability (CellTiter Glo ATP) with elesclomol under normoxia/hypoxia, 769-P; assay type: cell-based; settings: 769-P cell line, which did not elevate LDH-A activity under hypoxic conditions
Protocol: FIG. 7 illustrates experimental work done with a variety of cells showing how high levels of HIF-1α and LDH-A activity correlate with the reduced sensitivity to elesclomol. FIGS. 7a and 7b show the reductive (i.e., pyruvate to lactate) LDH activity and HIF-1α level under normoxic and hypoxic conditions. The cells set forth in the Figures and in Table 1, below were seeded at 2 k cells/well in a 96-well plate and cultured under normoxic (20% O2) and hypoxic (0.1% O2) conditions to determine their LDH activity and HIF-1α level. LDH-A activity (measuring reduction of pyruvate to lactate by monitoring NADH at 340 nm) and HIF-1α were analyzed at 24 h. […] An experiment was then run to treat these same cell lines with vehicle or 50 nM elesclomol under normoxic (20% O2) and hypoxia (0.1% O2) conditions for 36 h (FIG. 7d.) Cell viability was evaluated by cellular ATP (CellTiter Glo, Promega).

CoCl2-treated M14 cells = experiment: Cell viability of CoCl2-treated M14 cells with elesclomol and oxamate (FIG. 10, 11); assay type: cell-based; settings: 50 nM elesclomol, 50 μM CoCl2, 25 mM oxamate, 48 h
Protocol: By inhibiting LDH, the conversion of pyruvate to lactate is shut down, as illustrated in the left panel of FIG. 10. Oxamate, a pyruvate analog and LDH-A inhibitor, was tested on CoCl2-treated M14 cells as illustrated in the right panel of FIG. 10. Cell viability was assessed after 48 h incubation with or without elesclomol and oxamate.
Cell viability was assessed after 48 h incubation with or without 50 nM elesclomol in the presence or absence of 50 μM CoCl2 and 25 mM oxamate.

Caki-2 cells = experiment: Cell viability by CellTiter Glo ATP assay at 24 h, Caki-2 cells (FIG. 6b); assay type: cell-based; settings: HIF-1α-high Caki-2 cells, 2,500 cells/well
Protocol: (§1) To further investigate a correlation between HIF-1α and elesclomol potency, lines within the same cancer phenotype but showing distinct levels of HIF1α were evaluated. Caki-1 and -2 are renal cancer cell lines established from the same patient; Caki-2 cells constitutively express HIF-1α while the expression in Caki-1 cells is conditional. VHL protein is a negative regulator of HIF-1α, and a VHL mutation accompanies constitutive HIF-1α expression. In FIG. 6a, cells were serially diluted to the densities indicated. Cell lysates were harvested for ELISA at 24 h after seeding. In FIG. 6b, cells were seeded at 2,500 cells/well-96 plate. Cell viability was evaluated by CellTiter Glo ATP assay at 24 h.

M14 melanoma cells = experiment: Cell viability (CCK8 assay) in M14 melanoma cells; assay type: cell-based; settings: Homo sapiens, confluent M14 cells, 48 h incubation
Protocol: M14 melanoma cells were seeded at 50,000 cells per well of 96-well plate in 100 μl of Dulbecco's […] (DMEM) supplemented with 10% fetal bovine serum. Cells were cultured at 37° C. under 5% CO2-95% air. After 16 hours of incubation, the test compound was added to the cell culture. The compound was first diluted in 100% dimethyl sulfoxide (DMSO) at 400-fold of the final concentrations actually used in the assay. The DMSO solution was next diluted 20 fold with the culture medium, and then finally added to the assay wells at another 20-fold dilution. Assay medium included the test compound with concentrations as indicated with 0.25% DMSO. Cell viability was measured with a CCK8 assay (as described in the Technical Manual for Cell Counting Kit-8, Product #CK04-11, CK04-13 and CK04-20, Dojindo Molecular Technologies, Inc. MD; Tantular, I. S. et al. Tropical Medicine and International Health, 8(6), 569-574, 2003) in the last 15 minutes after a 48 h incubation with the test compound. Each bar of the figure expresses average percent inhibition against vehicle (0.25% DMSO) control (n=4). Error bars indicate standard deviation.

metastatic melanoma = experiment: Phase 3 trial in metastatic melanoma, stratified by baseline LDH; assay type: in vivo, patients; settings: for median PFS: elesclomol arm
Text: In a Phase 3 trial in metastatic melanoma, the level of baseline lactate dehydrogenase (LDH) in patients emerged as an important prognostic factor for treatment outcomes with elesclomol. A differential response to treatment with elesclomol was shown, based on the level of baseline LDH in the plasma, an established prognostic biomarker in melanoma and a pre-specified stratification variable in the trial.

Caki-1 cells = experiment: Cell viability by CellTiter Glo ATP assay at 24 h, Caki-1 cells (FIG. 6b); assay type: cell-based; settings: HIF-1α-low Caki-1 cells, 2,500 cells/well
Protocol: as §1

HIF-1α = assay type: cell-based

Row | SMILES | potency of elesclomol, normoxia vs hypoxia [1] | change in sensitivity to elesclomol under hypoxic conditions (769-P) | elesclomol activity upon co-treatment with oxamate (cell viability) (CoCl2-treated M14 cells) | sensitivity of cells to elesclomol (Caki-2 cells) | IC50 (M14 melanoma cells) | survival endpoint (metastatic melanoma; elevated LDH population) | median PFS (metastatic melanoma; elevated LDH population, 32% of patients) | PFS HR (metastatic melanoma; elevated LDH population, p=0.549) | overall survival (metastatic melanoma; normal LDH population) | safety profile (metastatic melanoma; normal LDH population) | median PFS (metastatic melanoma; normal LDH population, 68% of patients) | PFS HR (metastatic melanoma; normal LDH population, p=0.027) | sensitivity of cells to elesclomol (Caki-1 cells) | HIF-1α level (HIF-1α) | reductive LDH activity (HIF-1α)
1 | CN(NC(=O)CC(=O)NN(C)C(=S)c1ccccc1)C(=S)c1ccccc1 [elesclomol, N-malonyl-bis(N′-methyl-N′-thiobenzoylhydrazide)] | increased potency | no change | remains active | resistant | > 12.5 µM | negative impact | 1.8 months | 1.10 | no impact on overall survival | acceptable safety profile | 3.6 months | 0.76 | sensitive | – | –
2 | [Cl-].[Cl-].[Co+2] [CoCl2] | – | – | – | – | – | – | – | – | – | – | – | – | – | increases | increased
